Drawing on ChEMBL document CHEMBL1134025, “Thiosugars. Part 9: synthesis and biological evaluation of some 4'-thio-L-arabino nucleoside analogues” (2001), this text covers MIC for two molecules.

Values after ≈ are worked out from the molar mass of the structure shown.

The subject of one assay is Human alphaherpesvirus 1. The assay can be described thus: Minimum inhibitory concentration required to reduce HSV-1(KOS) induced cytopathogenicity by 50%. It is filed as functional. For orientation: Cytopathic effects are the visible damage that an infection or toxin causes in cultured cells.
In a further assay the test system is Human alphaherpesvirus 3. The assay can be described thus: Minimum inhibitory concentration required to reduce VZV induced cytopathogenicity by 50%. It is filed as functional.
For a further assay, the system named is Punta Toro virus. The assay can be described thus: Minimum inhibitory concentration required to reduce Punta Toro virus induced cytopathogenicity by 50%. It is filed as functional.
In assay [1] the test system is Vesicular stomatitis virus. Kind of assay: Minimum inhibitory concentration required to reduce Vesicular stomatitis virus induced cytopathogenicity by 50%. In kind it is functional.
Another assay relates to Coxsackievirus B4. The assay can be described thus: Minimum inhibitory concentration required to reduce Coxsackie B4 virus induced cytopathogenicity by 50%. In kind it is functional. Conditions: Enterovirus B.
A further assay concerns Human alphaherpesvirus 2. The assay can be described thus: Minimum inhibitory concentration required to reduce HSV-2 induced cytopathogenicity by 50%. In kind it is functional.
Assay [2] concerns Human immunodeficiency virus 1. Kind of assay: Minimum inhibitory concentration required to reduce HIV-1 induced cytopathogenicity by 50%. In kind it is functional.
In assay [3] the test system is Respiratory syncytial virus. The assay can be described thus: Minimum inhibitory concentration required to reduce Respiratory syncytial virus induced cytopathogenicity by 50%. It is filed as functional. Conditions: human respiratory syncytial virus.
Assay [4] concerns Human immunodeficiency virus 2. The assay can be described thus: Minimum inhibitory concentration required to reduce HIV-2 induced cytopathogenicity by 50%. In kind it is functional.
The test system of a further assay is Sindbis virus. Kind of assay: Minimum inhibitory concentration required to reduce Sindbis virus induced cytopathogenicity by 50%. In kind it is functional.
Assay [5] relates to Mammalian orthoreovirus 1. The assay can be described thus: Minimum inhibitory concentration required to reduce Reo virus-1 induced cytopathogenicity by 50%. It is filed as functional, reo virus type 1.
For the next assay, the system named is Human respirovirus 3. The assay can be described thus: Minimum inhibitory concentration required to reduce Parainfluenza-3 virus induced cytopathogenicity by 50%. In kind it is functional.
The subject of the next assay is Human betaherpesvirus 5. The assay can be described thus: Minimum inhibitory concentration required to reduce HCMV induced cytopathogenicity by 50%. It is filed as functional.

As for `O=c1ccn([C@H]2S[C@@H](CO)[C@H](O)[C@H]2O)c(=O)[nH]1`, the MIC against Human alphaherpesvirus 1 was found to be 48 µg/mL (≈ 184 µM); in the assay with Human alphaherpesvirus 3, 400 µg/mL (≈ 1540 µM); with Punta Toro virus, 400 µg/mL (≈ 1540 µM); in assay [1] it was 400 µg/mL (≈ 1540 µM); in the assay on Coxsackievirus B4 it was 400 µg/mL (≈ 1540 µM); in the assay on Human alphaherpesvirus 2 it was 400 µg/mL (≈ 1540 µM). Also, the MIC (in assay [2]; in [3]; in assay [4]; against Sindbis virus; in assay [5]; against Human respirovirus 3) was 400 µg/mL (≈ 1540 µM) each time. Also, the MIC in the assay on Human betaherpesvirus 5 was 400 µg/mL (≈ 1540 µM).

With `Cc1cn([C@@H]2S[C@@H](CO)[C@H](O)[C@H]2O)c(=O)[nH]c1=O`, the MIC was found to be 48 µg/mL (≈ 175 µM) in the assay on Human alphaherpesvirus 1; 400 µg/mL (≈ 1460 µM) against Human alphaherpesvirus 3; 400 µg/mL (≈ 1460 µM) in the assay with Punta Toro virus; 400 µg/mL (≈ 1460 µM) in assay [1]; 400 µg/mL (≈ 1460 µM) in the assay on Coxsackievirus B4; 400 µg/mL (≈ 1460 µM) against Human alphaherpesvirus 2. Besides, the MIC (in assay [2]; in assay [3]; in [4]; with Sindbis virus; in assay [5]; in the assay with Human respirovirus 3) was 400 µg/mL (≈ 1460 µM) in each case. For the same molecule, the MIC against Human betaherpesvirus 5 came out at 400 µg/mL (≈ 1460 µM).
